# From PubChem BioAssay AID248 (DTP/NCI, 2004)
# Toxic doses and inconclusive results are not listed.
# Tested on: L1210 leukemia ip in BDF1 mice, survival T/C
# Assay: NCI In Vivo Anticancer Drug Screen. Data for tumor model L1210 Leukemia (intraperitoneal) in B6D2F1 (BDF1) mice
# Details: endpoint: mean survival time, higher = longer survival
# Method in brief: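 Value reflects the ratio of survival in compound-treated mice to survival in vehicle-treated controls, with both groups carrying the same transplanted tumor.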
# [1] = dose: 100.0 mg/kg/injection, schedule: Q01DX001 (ip), vehicle: saline
# [2] = dose: 200.0 mg/kg/injection, schedule: Q01DX001 (ip), vehicle: saline
# [3] = dose: 400.0 mg/kg/injection, schedule: Q01DX001 (ip), vehicle: saline
# [4] = dose: 100.0 mg/kg/injection, schedule: Q01DX001 (ip), vehicle: other
# [5] = dose: 100.0 mg/kg/injection, schedule: Q04DX002 (ip), vehicle: Klucel (hydroxypropylcellulose) (HPC)
# [6] = dose: 200.0 mg/kg/injection, schedule: Q01DX001 (ip), vehicle: other
# [7] = dose: 200.0 mg/kg/injection, schedule: Q04DX002 (ip), vehicle: Klucel (hydroxypropylcellulose) (HPC)
# [8] = dose: 400.0 mg/kg/injection, schedule: Q01DX001 (ip), vehicle: other
# [9] = dose: 400.0 mg/kg/injection, schedule: Q04DX002 (ip), vehicle: Klucel (hydroxypropylcellulose) (HPC)
# [10] = dose: 100.0 mg/kg/injection, schedule: Q04DX003 (ip), vehicle: saline with Tween-80
# [11] = dose: 200.0 mg/kg/injection, schedule: Q04DX003 (ip), vehicle: saline with Tween-80
# [12] = dose: 400.0 mg/kg/injection, schedule: Q04DX003 (ip), vehicle: saline with Tween-80
structure (smiles),measurement,setting,value
CCCCS/C=C1/CC2(C)C(CCC3C4CCC(O)C4(C)CCC32)CC1=O (stereo not given),T/C,"dose: 100.0 mg/kg/injection, schedule: Q04DX003 (ip), vehicle: Klucel (hydroxypropylcellulose) (HPC)",89 % of control
same,T/C,"dose: 200.0 mg/kg/injection, schedule: Q04DX003 (ip), vehicle: Klucel (hydroxypropylcellulose) (HPC)",91 % of control
CC[Si](Cl)(CC)c1ccccc1,T/C,[1],93 % of control
same,T/C,"dose: 100.0 mg/kg/injection, schedule: Q01DX001 (sc), vehicle: olive oil, sesame oil, peanut oil",107 % of control
same,T/C,[2],90 % of control
same,T/C,"dose: 200.0 mg/kg/injection, schedule: Q01DX001 (sc), vehicle: olive oil, sesame oil, peanut oil",107 % of control
same,T/C,[3],195 % of control
same,T/C,"dose: 400.0 mg/kg/injection, schedule: Q01DX001 (sc), vehicle: olive oil, sesame oil, peanut oil",102 % of control
CCCCCCCCCCCC(N)=O,T/C,[4],104 % of control
same,T/C,[5],104 % of control
same,T/C,[6],93 % of control
same,T/C,[7],110 % of control
same,T/C,[8],96 % of control
same,T/C,[9],93 % of control
CC1(CO)COC2(CCCCC2)N1 (stereo not given),T/C,"dose: 75.0 mg/kg/injection, schedule: Q01DX001 (ip), vehicle: saline",102 % of control
same,T/C,"dose: 150.0 mg/kg/injection, schedule: Q01DX001 (ip), vehicle: saline",92 % of control
same,T/C,"dose: 300.0 mg/kg/injection, schedule: Q01DX001 (ip), vehicle: saline",96 % of control
O=C(O)CCCc1ccc2ccccc2n1,T/C,"dose: 50.0 mg/kg/injection, schedule: Q01DX001 (ip), vehicle: alkali diluted with saline",101 % of control
same,T/C,"dose: 100.0 mg/kg/injection, schedule: Q01DX001 (ip), vehicle: alkali diluted with saline",103 % of control
same,T/C,"dose: 200.0 mg/kg/injection, schedule: Q01DX001 (ip), vehicle: alkali diluted with saline",97 % of control
same,T/C,"dose: 400.0 mg/kg/injection, schedule: Q01DX001 (ip), vehicle: alkali diluted with saline",103 % of control
CC(C)C/C=C/C(=O)CC(=O)OC(C)C,T/C,"dose: 75.0 mg/kg/injection, schedule: Q01DX001 (ip), vehicle: other",97 % of control
same,T/C,"dose: 150.0 mg/kg/injection, schedule: Q01DX001 (ip), vehicle: other",101 % of control
same,T/C,"dose: 300.0 mg/kg/injection, schedule: Q01DX001 (ip), vehicle: other",117 % of control
Cc1nc(N)c(=O)[nH]c1C,T/C,"dose: 100.0 mg/kg/injection, schedule: Q01DX001 (ip), vehicle: Klucel (hydroxypropylcellulose) (HPC)",104 % of control
same,T/C,"dose: 100.0 mg/kg/injection, schedule: Q01DX009 (ip), vehicle: saline with Tween-80",90 % of control
same,T/C,[10],100 % of control
same,T/C,"dose: 200.0 mg/kg/injection, schedule: Q01DX001 (ip), vehicle: Klucel (hydroxypropylcellulose) (HPC)",97 % of control
same,T/C,"dose: 200.0 mg/kg/injection, schedule: Q01DX009 (ip), vehicle: saline with Tween-80",112 % of control
same,T/C,[11],105 % of control
same,T/C,"dose: 400.0 mg/kg/injection, schedule: Q01DX001 (ip), vehicle: Klucel (hydroxypropylcellulose) (HPC)",97 % of control
same,T/C,"dose: 400.0 mg/kg/injection, schedule: Q01DX009 (ip), vehicle: saline with Tween-80",104 % of control
same,T/C,[12],114 % of control
CC(C)c1nc2c(c(=O)n(C)c(=O)n2C)n1C,T/C,"dose: 50.0 mg/kg/injection, schedule: Q01DX001 (ip), vehicle: saline",102 % of control
same,T/C,[1],96 % of control
same,T/C,[2],96 % of control
same,T/C,[3],108 % of control
O=C(CCl)NC1C2CC3CC(C2)CC1C3 (stereo not given),T/C,[5],104 % of control
same,T/C,[7],101 % of control
same,T/C,[9],96 % of control
N#CN=C([S-])[S-].N#CN=C([S-])[S-].[Cu],T/C,"dose: 6.25 mg/kg/injection, schedule: Q01DX009 (ip), vehicle: saline",102 % of control
same,T/C,"dose: 12.5 mg/kg/injection, schedule: Q01DX009 (ip), vehicle: saline",96 % of control
same,T/C,"dose: 25.0 mg/kg/injection, schedule: Q01DX009 (ip), vehicle: saline",93 % of control
O=C1c2ccccc2C(=O)c2c(O)c([N+](=O)[O-])cc([N+](=O)[O-])c21,T/C,[1],98 % of control
same,T/C,[2],104 % of control
same,T/C,[3],100 % of control
O=C1C2C3CCC(O3)C2C(=O)N1CSc1nc2ccccc2s1 (stereo not given),T/C,"dose: 100.0 mg/kg/injection, schedule: Q01DX001 (ip), vehicle: saline with Tween-80",96 % of control
same,T/C,"dose: 200.0 mg/kg/injection, schedule: Q01DX001 (ip), vehicle: saline with Tween-80",90 % of control
same,T/C,"dose: 400.0 mg/kg/injection, schedule: Q01DX001 (ip), vehicle: saline with Tween-80",95 % of control
O=S(=O)(NCCCl)c1ccc(Br)cc1,T/C,[4],101 % of control
same,T/C,[10],95 % of control
same,T/C,[6],90 % of control
same,T/C,[11],103 % of control
same,T/C,[8],101 % of control
same,T/C,[12],97 % of control
